This is an account of results in patent publication US20250027930A1, “SMALL MOLECULES FOR REPROGRAMING ANTI-TUMOR IMMUNITY OF T CELLS” (THE SCRIPPS RESEARCH INSTITUTE, priority 2021, published 2025).

Each structure is given as a SMILES string.

Series [1] has as its system OT-I splenocytes. Description: OT-I splenocyte culture with purine/pyrimidine pathway compounds. Format: cell-based, mouse. How it is done: We therefore tested if purine and pyrimidine nucleotides have similar effects as N-Acetylneuraminic acid to help maintain less differentiated phenotypes of T cells during expansion. OT-I splenocytes were cultured with 500 nM […] peptide (OVA257-264) for three days at initial cell density of 1×10^6/mL to activate and expand the CD8+ T cell population. Different concentrations of the products or intermediates in purine or pyrimidine de novo synthesis pathways were added on day 3. The tested compounds include, e.g., guanosine, deoxyguanosine, adenosine, deoxyadenosine, inosine, xanthosine, orotidine, uridine, cytidine, deoxycytidine, thymidine, deoxythymidine, 5-Aminoimidazole-4-carboxamide ribonucleotide (AICAR), orotate, and dihydroorotate. The phenotype of expanded T cells were analyzed on day 5.

Series [2] has as its system P14 CD8+ T cells. Format: in vivo, mouse. The settings on record: 14 dpi LCMV-Cl13; cells treated in vitro, vs untreated.
The test system of series [3] is B16-OVA tumor. Format: in vivo, mouse. The settings on record: adoptive transfer of sugar-treated OT-1 T cells; vs untreated T cells. How it is done:
Naïve splenocytes from OT-1 mice were stimulated in vitro with OVA257-264 (500 nM) and IL-2 (60 IU/mL) in the presence or absence of an added compound for 3 days at a density of 1 million/mL (100 uL/well in 96/well plate), then expanded for 4 days. On day 7, PD-1, Tim3 and TCF-1 expressions were assessed by flow cytometry by staining cells with anti-CD8a (PerCP-Cy5.5), anti-Tim3 (BV421) and anti-TCF-1 (AF488) antibodies. For adoptive transfer, 0.6M B16-OVA cells (6×10^5) were inoculated subcutaneously 3 to 5 days before transfer in C57BL/6. On the day of adoptive transfer, mice were irradiated with 5 Gy X-ray, randomized according to tumor size, and intravenously injected with 0.2-0.3M of CD8+OT-1 T cells (2×10^5) expanded under different conditions, followed by administration of 50000 IU IL-2 every 12 h for four days. In the control group, mice were injected with cell-free vehicle only. For assessment of adoptive transfer of OT-1 CD8+ T cells activated and expanded by contacting the cells with fructose, on day 9 after transfer, anti-PD-1 (100 ug/mouse) was administered to the mice that had received T cell transfer. For assessment of adoptive transfer of OT-1 CD8+ T cells activated and expanded by contacting cells with Neu5Ac, on day 14 and day 21 after transfer, anti-PD-1 (100 ug/mouse) was administered to the mice that had received T cell transfer. The tumor growth was monitored every 3 to 4 days by measuring tumor size. Percent survival was also monitored and recorded within a period of 40 days post treatment. To evaluate tumor infiltrating OT-1 T cells, 0.6M B16-OVA cells (6×10^5) were inoculated subcutaneously 3 to 5 days before transfer in C57BL/6. On the day of adoptive transfer, mice were irradiated with 5 Gy X-ray, randomized according to tumor size, and intravenously injected with 0.2-0.3M of CD8+OT-1 T cells (2×10^5) expanded under different conditions, followed by administration of 50000 IU IL-2 every 12 h for four days. Tumors were then isolated and assessed for percentage of OT-I T cells from the total CD8+ T cells and OT-1 T cell number per gram of tumor tissue. To evaluate apoptosis, Naïve OT-1 splenocytes were stimulated by OVA257-264 (500 nM) without IL-2 in the presence of absence of sugars for 5 days followed by using Annexin V Apoptosis detection kit (Biolegend). […] To evaluate other cellular characteristics, naïve OT-1 splenocytes were stimulated by OVA257-264 (500 nM) with IL-2 (60 IU/mL) in the presence or absence of sugars for 7 or 8 days. On day 7 or 8 cells were taken and analyzed by assessment of ROS, NADPH/NADP+ ratio, and GSH/GSSG ratio.

Series [4] has as its system OT-1 cells. Description: OT-I-Tcf7GFP splenocyte screen: proliferation and Tim3−TCF-1+ ratio. The format is cell-based, mouse. The settings on record: Day7; for Tim3^−TCF-1^+ ratio of CD8^+ T cells (%): w/o 2.6; for activity at 80000 µM / activity at 60000 µM: Mus musculus, Splenocyte, 168 h, OT-1 cells, read-out: Proliferation fold, Normalized to W/O. How it is done:
Cell number was recorded on day 3 and day 7. On day 7, cells were stained with anti-CD8a (PerCP-Cy5.5) and anti-Tim3 (BV421) antibodies for flow cytometry or plate reader analysis.
Because TCF1 expression positively correlates with T cell stemness, the greater signal of EGFP a T cell expresses, the less differentiated the T cell is. Furthermore, if the compound also facilitates T cells proliferation, there would be more T cells per well in comparison to the untreated control. Therefore, a compound that not only maintains TCF-1 expression but also facilitates T cell growth would produce the strongest green fluorescence intensity. […] GlcA stands for glucuronic acid.

Series [5] concerns P14 cells. The series is described as follows: P14 splenocyte in vitro activation, re-stimulation and expansion. The format is cell-based, mouse. The settings on record: for Fold of proliferation, Normalized to W/O: P14 cells.
For series [6], the system named is OT-1 CD8+ T cells. Description: OT-1 splenocyte activation and expansion, day 7 flow cytometry. The format is cell-based, mouse. The settings on record: for percentage of Tim3−TCF-1+ CD8+ T cells (in words): OT-1 cells day 7, compared with fructose or sucrose. How it is done: Naïve splenocytes from OT-1 mice were stimulated in vitro with OVA257-264 (500 nM) and IL-2 (60 IU/mL) in the presence or absence of an added compound for 3 days at a density of 1 million/mL (100 uL/well in 96/well plate), then expanded for 4 days. On day 7, PD-1, Tim3 and TCF-1 expressions were assessed by flow cytometry by staining cells with anti-CD8a (PerCP-Cy5.5), anti-Tim3 (BV421) and anti-TCF-1 (AF488) antibodies. For adoptive transfer, 0.6M B16-OVA cells (6×10^5) were inoculated subcutaneously 3 to 5 days before transfer in C57BL/6. On the day of adoptive transfer, mice were irradiated with 5 Gy X-ray, randomized according to tumor size, and intravenously injected with 0.2-0.3M of CD8+OT-1 T cells (2×10^5) expanded under different conditions, followed by administration of 50000 IU IL-2 every 12 h for four days. In the control group, mice were injected with cell-free vehicle only. For assessment of adoptive transfer of OT-1 CD8+ T cells activated and expanded by contacting the cells with fructose, on day 9 after transfer, anti-PD-1 (100 ug/mouse) was administered to the mice that had received T cell transfer. For assessment of adoptive transfer of OT-1 CD8+ T cells activated and expanded by contacting cells with Neu5Ac, on day 14 and day 21 after transfer, anti-PD-1 (100 ug/mouse) was administered to the mice that had received T cell transfer. The tumor growth was monitored every 3 to 4 days by measuring tumor size. Percent survival was also monitored and recorded within a period of 40 days post treatment. To evaluate tumor infiltrating OT-1 T cells, 0.6M B16-OVA cells (6×10^5) were inoculated subcutaneously 3 to 5 days before transfer in C57BL/6. […] Tumors were then isolated and assessed for percentage of OT-I T cells from the total CD8+ T cells and OT-1 T cell number per gram of tumor tissue. […] On day 7 or 8 cells were taken and analyzed by assessment of ROS, NADPH/NADP+ ratio, and GSH/GSSG ratio.
A general note: Flow cytometry measures light scatter and fluorescence of single cells or particles in a stream.

Series [7] has as its system OT-1 cells. The series is described as follows: OT-1 cells treated with K+ or p38i. The format is cell-based, mouse. The source says: We also tested two small molecules (KCl and p38i) reported in papers. (Science 2019, 363, (6434); Cancer Cell 2020, 37, (6), 818-833 e9).
Series [8] concerns OT-I CD8 T cells.
Setting [9] is: added together with N-Acetylneuraminic acid on day 3, analyzed day 5.

With `NC(=O)c1ncn([C@@H]2O[C@H](COP(=O)(O)O)[C@@H](O)[C@H]2O)c1N` [AICAR, 5-Aminoimidazole-4-carboxamide ribonucleotide], the cell proliferation result in series [1] (setting [9]) was “without significant impact on cell proliferation”.
Consider `O=C(CO)[C@@H](O)[C@H](O)[C@H](O)CO` [Fructose, fructose], for which the “percentages and total numbers of expanded virus-specific P14 CD8+ T cells in the spleen and liver” value in series [2] is given as “significantly higher”. The “capabilities to control tumor growth” value in series [3] is “significantly better”. For the same compound, the “Tim3^−TCF-1^+ ratio of CD8^+ T cells (%)” value in series [4] (80 mM) was 43.9%; in series [5] (Day6, 80 mM, w/o 55.0), 87.9%; in series [5] (Day9, 80 mM, w/o 3.5), 48.9%. Also, the activity at 80000 µM in series [4] (80 mM) worked out at 109%. The “Fold of proliferation, Normalized to W/O” value in series [5] (Day6, 80 mM) stood at 2.10 fold; in series [5] (Day9, 80 mM), 2.94 fold.
As to `O=C[C@H](O)[C@@H](O)[C@@H](O)[C@H](O)CO` [Galactose, galactose], the T cell proliferation entry in series [6] (80 mM, OT-1 cells) is listed as “significantly suppressed”. Besides, the “percentage of Tim3−TCF-1+ CD8+ T cells (in words)” value in series [6] is “increased the percentage of Tim3−TCF-1+ CD8+ T cells but at a lower level”. Further, the “Fold of proliferation, Normalized to W/O” value in series [5] (Day6, 80 mM) is reported as 1.59 fold; in series [5] (Day9, 80 mM), 1.87 fold. In addition, the “Tim3^−TCF-1^+ ratio of CD8^+ T cells (%)” value is reported as 88.9% in series [5] (Day6, 80 mM, w/o 55.0) and 37.4% in series [5] (Day9, 80 mM, w/o 3.5).
As for `O=C[C@H](O)[C@@H](O)[C@H](O)[C@H](O)C(=O)O` [GlcA, glucuronic acid], in series [4] (60 mM), the “Tim3^−TCF-1^+ ratio of CD8^+ T cells (%)” value worked out at 65.3% and the activity at 60000 µM was 97%.
For `N#Cc1cc(Nc2ncc3c(n2)CCCCC3=O)cs1` [Inhibitor G6PDi-1, reference compound], in series [1] (added on day 3, analyzed day 5), the cell proliferation entry is “without significant impact on cell proliferation” and the “increase of the proportion of Tim3−TCF1+ T cells by a factor” value was 1.5.
For the compound `[Cl-].[K+]` [K^+, KCl], in series [7], the “Tim3−TCF-1+ ratio of OT-1 cells (in words)” value is given as “increased” and the “proliferation of OT-1 cells (in words)” value was “slightly inhibit”. For the same compound, in series [7] (Day 7, 40 mM, OT-1 cells), the “Proliferation fold, Normalized to W/O” value is given as 0.87 fold. Moreover, in series [7] (Day 7, 40 mM, W/O 9.5), the “Tim3^−TCF-1^+ ratio of CD8^+ T cells (%)” value is on record as 80.7%. The “slowed down T cell proliferation” value in series [5] (compared to untreated T cells) was 10-20%.
Turning to `OC[C@H]1O[C@@H](O[C@H]2[C@H](O)[C@@H](O)C(O)O[C@@H]2CO)[C@H](O)[C@@H](O)[C@H]1O` (stereo partly shown) [Lactose, lactose], the “percentages and total numbers of expanded virus-specific P14 CD8+ T cells in the spleen and liver” value in series [2] is on record as “significantly higher”. Further, in series [6], the “percentage of Tim3−TCF-1+ CD8+ T cells (in words)” value is recorded as “increased the percentage of Tim3−TCF-1+ CD8+ T cells but at a lower level”. Moreover, in series [3], the “capabilities to control tumor growth” value is “significantly better”. Moreover, the “Tim3^−TCF-1^+ ratio of CD8^+ T cells (%)” value in series [4] (60 mM) came to 25.6%; in series [5] (Day6, 60 mM, w/o 55.0), 79.4%; in series [5] (Day9, 60 mM, w/o 3.5), 23.7%. In addition, the activity at 60000 µM in series [4] (60 mM) was found to be 63%. Besides, the “Fold of proliferation, Normalized to W/O” value in series [5] (Day6, 60 mM) turned out to be 1.87 fold; in series [5] (Day9, 60 mM), 1.76 fold.
For the compound `CCN(c1cc(-c2ccc(CN3CCOCC3)cc2)cc(C(=O)NCc2c(C)cc(C)[nH]c2=O)c1C)C1CCOCC1` [Taz, Tazemetostat], the “cell survival when added on day 0 together with OVA257-264 peptide” value in series [8] is “all cells were found dead”. Besides, in series [8] (day 7, Taz (3-7), 400 nM), the “fold increase in progenitor exhausted cells” value is listed as 2.5-3.5 fold. In addition, the “progenitor exhausted cells (Tim3^−TCF-1^+)” value in series [8] (day 7, Taz (3-7), 400 nM, without Taz 8.47%) is reported as 27.7%.
In the case of `OC[C@H]1O[C@H](O[C@H]2O[C@H](CO)[C@@H](O)[C@H](O)[C@H]2O)[C@H](O)[C@@H](O)[C@@H]1O` [Trehalose, trehalose], the “Tim3^−TCF-1^+ ratio of CD8^+ T cells (%)” value in series [4] (80 mM) is 35.4%; in series [5] (Day6, 80 mM, w/o 55.0), 83.2%; in series [5] (Day9, 80 mM, w/o 3.5), 34.6%. Further, the activity at 80000 µM in series [4] (80 mM) was 84%. The “Fold of proliferation, Normalized to W/O” value in series [5] (Day6, 80 mM) was 1.42 fold; in series [5] (Day9, 80 mM), 1.47 fold.
As to `Nc1nc2c(ncn2[C@@H]2O[C@H](CO)[C@@H](O)[C@H]2O)c(=O)[nH]1` [guanosine], in series [1] (setting [9]), the cell proliferation result is “without significant impact on cell proliferation”.
